According to patent US5178789A, “Liquid detergent with stabilized enzyme” (Genencor International, Inc., priority 1991, dated 1993):
Where “and” joins values, the source holds several entries; their conditions need not be identical. Equal values may be shown once.

Assays:
Format in all cases: biochemical
subtilisin [1] = experiment: Inhibition assay: subtilisin incubated with inhibitor, rate of substrate hydrolysis monitored; details: about 2 mg/ml TOM; summary of Tables I and II
Protocol: The inhibitor solution is made up in a 20 mM Mops, pH 7 buffer and added to an eppendorf. 0.8 mM subtilisin is added and the mixture is allowed to incubate at room temperature for 15 minutes. After 15 minutes, 99 μl of the mixture is added to a cuvette containing 10 μl of 100 mg/ml SAAApna. The rate of hydrolysis is monitored at […]. A subtilisin control containing no inhibitor is carried out.

subtilisin [2] = experiment: Dilution assay: inhibition mixture diluted, final 1:1000, recovered subtilisin activity; details: final dilution 1:1000, 0.1M Tris pH 8.6
Protocol: The above inhibition assay is diluted 1:10 into the standard subtilisin assay buffer (0.1M Tris, pH 8.6 with 0.005% Tween). 10 μl of this diluted material is then added to a cuvette containing 10 μl of 100 mg/ml SAAPFpna and 980 μl subtilisin Assay Buffer. The rate of reaction is followed at 410 nm. The final dilution is 1:1000.

subtilisin [3] = experiment: Inhibition of subtilisin by TOM in the presence of Tide Liquid, diluted 1/500; details: for % Activity Recovered Upon Dilution / Subtilisin activity, Tide 2 mg/ml TOM: 2 mg/ml TOM in Tide Liquid, diluted 1/500
Protocol: 2 mg/ml of TOM was added to Tide™ Liquid (commercially available from The Procter & Gamble Co). The solution was diluted 1/500 into the standard subtilisin 8.6 Tris buffer. 10 μl aliquots were taken at various times to monitor subtilisin activity. Similar dilutions and assay procedures were carried out with Tide™ Liquid. 100 mg/ml SAAPFpna substrate was used.

Substance: turkey ovomucoid [TOM]
- active enzyme bound by inhibitor (subtilisin [1]): at least 90%
- Dilution Assay % Recovered Activity (subtilisin [2]; 0.4 mg/ml TOM): 32%
- Dilution Assay % Recovered Activity (subtilisin [2]; 2 mg/ml TOM): 45%
- enzyme activity recovered immediately upon appropriate dilution (subtilisin [3]; about 2 mg/ml TOM, summary of Tables I and II): > 25% and 46%
- % Activity Recovered Upon Dilution (subtilisin [3]; time 0 min): 46%
- Subtilisin activity, Tide 2 mg/ml TOM (subtilisin [3]; time 0 min): 1.04
- % Activity Recovered Upon Dilution (subtilisin [3]; time 15 min): 38%
- Subtilisin activity, Tide 2 mg/ml TOM (subtilisin [3]; time 15 min): 0.97
- % Activity Recovered Upon Dilution (subtilisin [3]; time 30 min): 33%
- Subtilisin activity, Tide 2 mg/ml TOM (subtilisin [3]; time 30 min): 0.965
